Assays:
[1] = system: Dd2 strain of P. falciparum; test: Activity against the Dd2 strain of P. falciparum (SYBR Green I, 72-h incubation); type: cell-based; conditions: Plasmodium falciparum, DD2, 72 h, read-out: EC^50 Dd2
Procedure, shortened: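 Dd2 parasites at 1% parasitemia and 1.0% hematocrit in albumax II screening medium, 72 h at 37° C under 93% N2/4% CO2/3% O2; final DMSO 0.125%. Growth read as SYBR Green I fluorescence (485/530 nm) after lysis and 24 h staining. 20 μM mefloquine defined background, DMSO baseline.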

P. falciparum Dd2 = test: In vitro P. falciparum blood-stage assay, strain Dd2; type: cell-based; conditions: Plasmodium falciparum
Description: (§1) Strains of Plasmodium falciparum (Dd2, 3D7, D6, K1, NF54, V1/3, HB3, 7G8, FCB, TM90C2B) were obtained from Malaria Research and Reference Reagent Resource Center (MR4). P. falciparum isolates were maintained with O-positive human blood in an atmosphere of 93% N2, 4% CO2, 3% O2 at 37° C. in complete culturing medium (10.4 g/L RPMI 1640, 5.94 g/L HEPES, 5 g/L albumax II, 50 mg/L hypoxanthine, 2.1 g/L sodium bicarbonate, 10% human serum and 43 mg/L gentamicin). Parasites were cultured in medium until the parasitemia reached 3-8%. Parasitemia was determined by checking at least 500 red blood cells from a Giemsa-stained blood smear. For the compound screening, a parasite suspension at 2.0% parasitemia and 2.0% hematocrit was created with medium. 25 μl of medium was dispensed into 384-well, black, clear-bottom plates. 100 nl of compounds in DMSO was transferred into the assay plates along with control compound (mefloquine). Next, 25 μl of the parasite suspension in medium was dispensed into the assay plates such that the final parasitemia was 1% and the final hematocrit was 1%. The assay plates were incubated for 72 hours at 37° C. […] The assay plates were read with 505 dichroic mirrors with 485-nm excitation and 530-nm emission settings.

P. falciparum 3D7 = test: In vitro P. falciparum blood-stage assay, strain 3D7; type: cell-based; conditions: Plasmodium falciparum
Description: as §1

P. falciparum K1 = test: In vitro P. falciparum blood-stage assay, strain K1; type: cell-based; conditions: Plasmodium falciparum
Description: as §1

P. falciparum V1/3 = test: In vitro P. falciparum blood-stage assay, strain V1/3; type: cell-based; conditions: Plasmodium falciparum
Description: as §1

P. falciparum TM90C2B = test: In vitro P. falciparum blood-stage assay, strain TM90C2B; type: cell-based; conditions: Plasmodium falciparum
Description: as §1

[2] = system: P. falciparum 3D7 gametocytes; test: P. falciparum gametocyte viability assay; type: cell-based; conditions: Plasmodium falciparum, 72 hours, Cell-titer glo, read-out: IC50 erythocytic stage (P. falciparum) sexual (IV & V)
Description: P. falciparum 3D7 stage Ill-V gametocytes were isolated by discontinuous Percoll gradient centrifugation of parasite cultures treated with 50 mM N-acetyl-D-glucosamine for 3 days to kill asexual parasites. Gametocytes (1.0×10^5) were seeded in 96-well plates and incubated with compounds for 72 hours. In vitro anti-gametocyte activity was measured using Cell-titer glo (Promega).

[3] = system: P. berghei (ANKA GFP-luc); test: In vitro P. berghei liver-stage assay in HepG2 cells; type: cell-based; conditions: Plasmodium berghei, 48 hour incubation, read-out: IC50 exo-erythrocytic stage P. berghei
Description: In vitro P. berghei liver-stage assay HepG2 cells were maintained in DMEM, 10% (vol/vol) FBS (Sigma), and 1% (vol/vol) antibiotic-antimycotic in a standard tissue culture incubator (37° C., 5% CO2). P. berghei (ANKA GFP-luc) infected Anopheles stephensi mosquitoes were obtained from the New York University Langone Medical Center Insectary (New York). For assays, ˜17,500 HepG2 cells per well were added to a 384-well microtiter plate in duplicate. After 18-24 h at 37° C. the media was exchanged and compounds were added. After 1 hour, parasites obtained from freshly dissected mosquitoes were added to the plates (4,000 parasites per well), the plates were spun for 10 min at 1,000 rpm, and then the plates were incubated at 37° C. The final assay volume was 30 μL. After a 48 hour incubation at 37° C., Bright-Glo (Promega) was added to the parasite plate to measure relative luminescence. The relative signal intensity of each plate was evaluated with an EnVision (PerkinElmer) system.

[4] = system: P. berghei (ANKA GFP-luc) sporozoites; test: In vivo P. berghei liver-stage assay; set-up: species or system CD-1 mice; conditions: orally at 50 mg/kg two hours after sporozoite inoculation
Description: CD-1 mice (n=4 per experimental group; female; 6-7-week-old; 20-24 g) were inoculated intravenously with 1×10^5 freshly isolated P. berghei(ANKA GFP-luc) sporozoites intravenously, and compounds were administered orally at 50 mg/kg two hours later. Bioluminescence signals from the transgenic parasites were monitored by the In vivo Imaging System (IVIS 100, Xenogen; Caliper Life Sciences). Animals with parasitemia exceeding 20% were euthanized.

**Q.** COc1ccc2c3c([nH]c2c1)[C@H](CO)N(C(C)=O)CC31CCN(C(=O)Nc2ccccc2F)CC1 [Compound 15, (R)-2′-acetyl-N-(2-fluorophenyl)-1′-(hydroxymethyl)-7′-methoxy-1′,2′,3′,9′-tetrahydrospiro [piperidine-4,4′-pyrido[3,4-b]indole]-1-carboxamide] was tested. Which EC50 [1] did it give?
**A.** The EC50 was 15 to 178 nM.

**Q.** What about the IC50 (P. falciparum Dd2) of the same compound?
**A.** The IC50 was 73 nM.

**Q.** And the IC50 (P. falciparum 3D7)?
**A.** Its IC50 is 65 nM.

**Q.** What about the IC50 (P. falciparum K1) of the same compound?
**A.** Its IC50 is 91 nM.

**Q.** What about the IC50 (P. falciparum V1/3) of the same compound?
**A.** The IC50 was 98 nM.

**Q.** What about the IC50 (P. falciparum TM90C2B) of the same compound?
**A.** The IC50 was 104 nM.

**Q.** And the IC50 [2]?
**A.** The IC50 was 643 nM.

**Q.** And the IC50 [3]?
**A.** Its IC50 is 459 nM.

**Q.** What about the “Parasitemia of treated animals (untreated controls: systemic parasitemia by day four)” value [4] of the same compound?
**A.** The value was “remained parasite free”.

**Q.** What about the “Inhibition of the liver stage of P. berghei in vivo (FIG. 1)” value ([4]; bioluminescence) of the same compound?
**A.** Its value is “inhibit the liver stage”.

Reference: US9428507B2, “Compounds for the treatment of malaria” (The Broad Institute, Inc., priority 2013, dated 2016)
